System: HeLa cells
Test: In vitro efficacy of mFLuc mRNA-encapsulated lipid nanoparticles, luminescence
Format: cell-based
Details: 20 ng mFLuc-encapsulated LNP, 24 hours
Procedure: To determine the efficacy of mRNA-encapsulated lipid nanoparticles in vitro, screening was performed using lipid nanoparticles synthesized with various amine head groups.
The test was conducted by treating 20 ng of mFLuc (SEQ ID NO: 1)-encapsulated lipid nanoparticles into HeLa cells using each lipid nanoparticle synthesized with various amine headgroups (Compounds 1, 2, 4, and 5). The luminescence intensity was measured at 24 hours.

Row | Compound | Relative luminescence mean value | expression effect (luminescence intensity), in words
1 | CCCCCC/C=C\COC(=O)CCCCCCCCN(CCCCCCCCC(=O)OC/C=C\CCCCCC)CCN1CCN(CCCCCCCCC(=O)OC/C=C\CCCCCC)CC1 [Compound 5] | 1022327.75 | highest expression effect
2 | CCCCCC/C=C\COC(=O)CCCCCCCCN(CCCCCCCCC(=O)OC/C=C\CCCCCC)CCCN1CCN(CCCN(CCCCCCCCC(=O)OC/C=C\CCCCCC)CCCCCCCCC(=O)OC/C=C\CCCCCC)CC1 [Compound 4] | 39970.75 | 

— US20260014075A1, “IONIZABLE LIPID CONTAINING BIODEGRADABLE ESTER BOND AND LIPID NANOPARTICLES COMPRISING SAME” (ST PHARM CO., LTD., priority 2022, published 2026)
